# Results reported in paper PMC10624635, “Design of allosteric sites into rotary motor V1-ATPase by restoring lost function of pseudo-active sites” (Nature Chemistry, 2023).
# Biological target: T1, wild-type V1-ATPase (Enterococcus hirae, UniProt Q08636+Q08637)
# T1 construct: gene ntpA
# Details: MgCl2; pH 6.5, 25 °C; ATP-regenerating system
smiles,measurement,value
Nc1ncnc2c1ncn2[C@@H]1O[C@H](COP(=O)(O)OP(=O)(O)OP(=O)(O)O)[C@@H](O)[C@H]1O [ATP],"coupled ATPase assay (NADH, pyruvate kinase / lactate dehydrogenase)",We also measured ATPase activity of the wild-type and designed V1
